# According to US6737383B1, “Herbicidal oxadiazolidines” (priority 1999, dated 2004):
# Tests used:
# [1] = tested on: green foxtail; assay: Test E green foxtail; type: in vivo, Setaria viridis; settings: Preemergence; for Green foxtail plant response rating (0 to 100 scale): Rate 250 g/ha
# [2] = tested on: winter wheat; assay: Test E winter wheat; type: in vivo, Triticum aestivum; settings: Postemergence; for Wheat (winter) plant response rating: Rate 250 g/ha
# Summary of the method: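 Greenhouse test: for postemergence, foliar application at 1- to 4-leaf stage; compound in non-phytotoxic solvent with surfactant. Rating is visual, relative to untreated controls, about 21 to 28 days after treatment.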
# [3] = tested on: wild oat; assay: Test B pre/postemergence wild oat; type: in vivo, Avena fatua
# Summary of the method: (§1)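 Herbicidal effect was estimated by eye on a ten-point control scale after plants spent twelve to sixteen days in a greenhouse following soil or foliar treatment. Foliar sprays targeted plants at one to four leaves; all doses were formulated in a non-phytotoxic solvent with surfactant.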
# [4] = tested on: crabgrass; assay: Test B pre/postemergence crabgrass; type: in vivo, Digitaria sanguinalis
# Summary of the method: as §1
# [5] = tested on: cocklebur; assay: Test B pre/postemergence cocklebur; type: in vivo, Xanthium strumarium
# Summary of the method: as §1
# [6] = tested on: Italian ryegrass; assay: Test E Italian ryegrass; type: in vivo, Lolium multiflorum; settings: Preemergence; for I. Ryegrass plant response rating (0 to 100 scale): Rate 250 g/ha
# [7] = tested on: wild oat; assay: Test E wild oat; type: in vivo, Avena fatua; settings: Preemergence; for Wild oat plant response rating (0 to 100 scale): Rate 250 g/ha
# [8] = tested on: wheat; assay: Test B pre/postemergence wheat; type: in vivo, Triticum aestivum
# Summary of the method: as §1
# [9] = tested on: winter barley; assay: Test E winter barley; type: in vivo, Hordeum vulgare; settings: Preemergence; for Barley (winter) plant response rating (0 to 100 scale): Rate 250 g/ha
# [10] = tested on: winter wheat; assay: Test E winter wheat; type: in vivo, Triticum aestivum; settings: Preemergence; for Wheat (winter) plant response rating (0 to 100 scale): Rate 250 g/ha
# [11] = tested on: blackgrass; assay: Test E blackgrass; type: in vivo, Alopecurus myosuroides; settings: Preemergence; for Blackgrass plant response rating (0 to 100 scale): Rate 250 g/ha
# [12] = Rate 1000 g/ha, 0 to 100 scale where 0 is no effect and 100 is complete control
# [13] = Preemergence, Rate 62 g/ha, scale of 0 to 10 where 0 is no effect and 10 is complete control
# [14] = Preemergence, Rate 250 g/ha, scale 0 to 10, 0 is no effect, 10 is complete control
# [15] = Preemergence, Rate 500 g/ha, scale of 0 to 10 where 0 is no effect and 10 is complete control
# [16] = Rate 62 g/ha, Postemergence, scale of 0 to 10 where 0 is no effect and 10 is complete control
# [17] = Rate 125 g/ha, Postemergence, scale 0 to 10
# [18] = Preemergence, Rate 125 g/ha, 0 is no effect, 10 is complete control
# [19] = Rate 500 g/ha, Postemergence, scale 0 to 10
# [20] = Rate 500 g/ha, 0 to 100 scale where 0 is no effect and 100 is complete control
# [21] = Rate 1000 g/ha, 0 to 100 scale, 0 no effect, 100 complete control
# [22] = 0 to 100 scale where 0 is no effect and 100 is complete control
# [23] = Rate 500 g/ha, 0 to 100 scale, 0 is no effect, 100 is complete control
# [24] = Preemergence, Rate 250 g/ha, scale of 0 to 10 where 0 is no effect and 10 is complete control
# [25] = Rate 125 g/ha, Postemergence, scale of 0 to 10 where 0 is no effect and 10 is complete control
# [26] = Rate 250 g/ha, Postemergence, scale of 0 to 10 where 0 is no effect and 10 is complete control
# [27] = Rate 500 g/ha, Postemergence, scale 0 to 10, 0 no effect, 10 complete control
# [28] = Rate 125 g/ha, Preemergence, scale of 0 to 10 where 0 is no effect and 10 is complete control
# [29] = Rate 500 g/ha, 0 to 100 scale (0 no effect, 100 complete control)
# [30] = Rate 62 g/ha, Postemergence, scale 0 to 10, 0 no effect, 10 complete control
smiles,measurement,setting,value
Cc1ccccc1-n1c(=O)on(C(=O)N(c2ccccc2F)C(C)C)c1=O [Compound 204],Green foxtail plant response rating (0 to 100 scale),[1],75
same,"Plant response rating, Green foxtail",[1]; [12],100
same,"Plant response rating, Wheat (winter)","[2]; Rate 1000 g/ha, 0 to 100 scale, 0 is no effect and 100 is complete control",30
same,Wild oats plant response rating,[3]; [13],0
same,Wild oats plant response rating,[3]; [14],3
same,"Plant response rating, Wild oats",[3]; [15],6
same,Wild oats plant response rating,[3]; [16],0
same,Wild oats plant response rating,[3]; [17],0
same,"Plant response rating (0 to 10; 0 is no effect, 10 is complete control), Wild oats","[3]; Rate 250 g/ha, Postemergence",0
same,Crabgrass plant response rating,[4]; [13],6
same,Crabgrass plant response rating (0 to 10 scale),[4]; [18],8
same,Crabgrass plant response rating,[4]; [14],8
same,"Plant response rating, Crabgrass",[4]; [15],8
same,Crabgrass plant response rating,[4]; [16],0
same,Crabgrass plant response rating,[4]; [17],0
same,"Plant response rating (0 to 10; 0 is no effect, 10 is complete control), Crabgrass","[4]; Rate 250 g/ha, Postemergence",2
same,Crabgrass plant response rating,[4]; [19],5
same,Cocklebur plant response rating,[5]; [13],0
same,Cocklebur plant response rating (0 to 10 scale),[5]; [18],0
same,Cocklebur plant response rating,[5]; [14],0
same,"Plant response rating, Cocklebur",[5]; [15],0
same,Cocklebur plant response rating,[5]; [16],0
same,Cocklebur plant response rating,[5]; [17],0
same,"Plant response rating (0 to 10; 0 is no effect, 10 is complete control), Cocklebur","[5]; Rate 250 g/ha, Postemergence",1
same,Cocklebur plant response rating,[5]; [19],1
same,I. Ryegrass plant response rating (0 to 100 scale),[6],50
same,"Plant response rating, I. Ryegrass",[6]; [12],65
same,Wild oat plant response rating (0 to 100 scale),[7],50
same,"Plant response rating, Wild oat",[7]; [12],50
same,Wheat plant response rating,[8]; [13],0
same,Wheat plant response rating,[8]; [14],0
same,"Plant response rating, Wheat",[8]; [15],2
same,Wheat plant response rating,[8]; [16],0
same,Wheat plant response rating,[8]; [17],0
same,"Plant response rating (0 to 10; 0 is no effect, 10 is complete control), Wheat","[8]; Rate 250 g/ha, Postemergence",0
same,Barley (winter) plant response rating (0 to 100 scale),[9],50
same,"Plant response rating, Barley (winter)",[9]; [12],30
same,Wheat (winter) plant response rating (0 to 100 scale),[10],30
same,"Plant response rating, Wheat (winter)",[10]; [12],50
same,Blackgrass plant response rating (0 to 100 scale),[11],55
same,"Plant response rating, Blackgrass",[11]; [12],95
Cc1ccccc1-n1c(=O)on(C(=O)N(c2cccc(F)c2)C(C)C)c1=O [Compound 269],Green foxtail plant response rating (0 to 100 scale),[1],60
same,"Plant response rating, Green foxtail",[1]; [20],70
same,"Plant response rating, Green foxtail",[1]; [21],100
same,"Plant response rating, Wheat (winter)",[2]; [12],55
same,Wheat (winter) plant response rating,[2]; [22],50
same,"Plant response rating, Wheat (winter)",[2]; [23],40
same,Wild oats plant response rating,[3]; [13],0
same,Wild oats plant response rating,[3]; [24],2
same,"Plant response rating, Wild oats",[3]; [15],4
same,Wild oats plant response rating,[3]; [25],0
same,"Plant response rating, Wild oats",[3]; [26],0
same,Wild oats plant response rating,[3]; [27],3
same,Crabgrass plant response rating,[4]; [13],0
same,Crabgrass plant response rating,[4]; [24],3
same,"Plant response rating, Crabgrass",[4]; [15],6
same,Crabgrass plant response rating,[4]; [25],0
same,Crabgrass plant response rating,[4]; [28],2
same,"Plant response rating, Crabgrass",[4]; [26],0
same,Crabgrass plant response rating,[4]; [27],1
same,Cocklebur plant response rating,[5]; [13],0
same,Cocklebur plant response rating,[5]; [24],0
same,"Plant response rating, Cocklebur",[5]; [15],0
same,Cocklebur plant response rating,[5]; [16],0
same,"Plant response rating, Cocklebur",[5]; [26],1
same,Cocklebur plant response rating,[5]; [27],2
same,I. Ryegrass plant response rating (0 to 100 scale),[6],50
same,"Plant response rating, I. Ryegrass",[6]; [20],60
same,"Plant response rating, I. Ryegrass",[6]; [21],70
same,Wild oat plant response rating (0 to 100 scale),[7],70
same,"Plant response rating, Wild oat",[7]; [20],70
same,"Plant response rating, Wild oat",[7]; [21],70
same,Wheat plant response rating,[8]; [13],0
same,Wheat plant response rating,[8]; [24],0
same,"Plant response rating, Wheat",[8]; [15],0
same,Wheat plant response rating,[8]; [25],0
same,Wheat plant response rating,[8]; [28],0
same,"Plant response rating, Wheat",[8]; [26],2
same,Wheat plant response rating,[8]; [27],4
same,Barley (winter) plant response rating (0 to 100 scale),[9],30
same,"Plant response rating, Barley (winter)",[9]; [20],50
same,"Plant response rating, Barley (winter)",[9]; [21],60
same,Wheat (winter) plant response rating (0 to 100 scale),[10],60
same,"Plant response rating, Wheat (winter)",[10]; [20],40
same,"Plant response rating, Wheat (winter)",[10]; [21],50
same,Blackgrass plant response rating (0 to 100 scale),[11],40
same,"Plant response rating, Blackgrass",[11]; [20],30
same,"Plant response rating, Blackgrass",[11]; [21],40
CC(C)N(C(=O)n1oc(=O)n(C2CCCC2)c1=O)c1ccc(Cl)cc1 [Compound 282],Green foxtail plant response rating (0 to 100 scale),[1],80
same,"Plant response rating, Green foxtail",[1]; [29],100
same,"Plant response rating, Green foxtail",[1]; [21],100
same,"Plant response rating, Wheat (winter)",[2]; [12],50
same,Wheat (winter) plant response rating,[2]; [22],20
same,"Plant response rating, Wheat (winter)",[2]; [23],30
same,Wild oats plant response rating,[3]; [13],0
same,Wild oats plant response rating,[3]; [24],5
same,"Plant response rating, Wild oats",[3]; [15],7
same,Wild oats plant response rating,[3]; [30],0
same,Wild oats plant response rating,[3]; [25],0
same,"Plant response rating, Wild oats",[3]; [26],0
same,Wild oats plant response rating,[3]; [27],0
same,Crabgrass plant response rating,[4]; [13],1
same,Crabgrass plant response rating,[4]; [24],6
same,"Plant response rating, Crabgrass",[4]; [15],8
same,Crabgrass plant response rating,[4]; [30],0
same,Crabgrass plant response rating,[4]; [25],0
same,Crabgrass plant response rating,[4]; [28],1
same,"Plant response rating, Crabgrass",[4]; [26],0
same,Crabgrass plant response rating,[4]; [27],0
same,"Plant response rating, Cocklebur",[5]; [15],0
same,Cocklebur plant response rating,[5]; [30],0
same,Cocklebur plant response rating,[5]; [25],0
same,Cocklebur plant response rating,[5]; [28],0
same,"Plant response rating, Cocklebur",[5]; [26],2
same,Cocklebur plant response rating,[5]; [27],2
same,I. Ryegrass plant response rating (0 to 100 scale),[6],70
same,"Plant response rating, I. Ryegrass",[6]; [29],70
same,"Plant response rating, I. Ryegrass",[6]; [21],70
same,Wild oat plant response rating (0 to 100 scale),[7],70
same,"Plant response rating, Wild oat",[7]; [29],70
same,"Plant response rating, Wild oat",[7]; [21],80
same,Wheat plant response rating,[8]; [13],0
same,Wheat plant response rating,[8]; [24],0
same,"Plant response rating, Wheat",[8]; [15],0
same,Wheat plant response rating,[8]; [30],0
same,Wheat plant response rating,[8]; [25],0
same,Wheat plant response rating,[8]; [28],0
same,"Plant response rating, Wheat",[8]; [26],0
same,Wheat plant response rating,[8]; [27],0
same,Barley (winter) plant response rating (0 to 100 scale),[9],50
same,"Plant response rating, Barley (winter)",[9]; [29],50
same,"Plant response rating, Barley (winter)",[9]; [21],70
same,Wheat (winter) plant response rating (0 to 100 scale),[10],60
same,"Plant response rating, Wheat (winter)",[10]; [29],60
same,"Plant response rating, Wheat (winter)",[10]; [21],70
same,Blackgrass plant response rating (0 to 100 scale),[11],60
same,"Plant response rating, Blackgrass",[11]; [29],60
same,"Plant response rating, Blackgrass",[11]; [21],70
